Data as given in patent publication US20260103438A1, “PROBES AND METHODS TO IDENTIFY LIGANDABLE FATTY ACYLATION SITES FOR THERAPEUTIC TARGET IDENTIFICATION” (The General Hospital Corporation, priority 2022, published 2026).

Tests used:
TEAD2 = TEAD2 (Homo sapiens, UniProt Q15562); assay: Labeling of TEAD2 by covalent probes in vitro (western blot); conditions: probe 1 μM, 30 mins, western blot (FIG. 1)
HEK293A cells = assay: MS-based proteomics of proteins enriched by covalent probes; assay type: cell-based; conditions: for number of proteins collectively targeted by Compound A21, Compound B1 and Compound B4: HEK293A cells, Venn diagram (FIG. 4); for number of proteins enriched by the covalent probes also identified by SLC-ABPP: overlap with SLC-ABPP database (FIG. 5)
Method: For in-cell labeling, HEK293A cells with or without overexpression of proteins of interest were starved in DMEM medium with 10% dialyzed fetal bovine serum (DFBS) for 1 h and labeled using the covalent probes (10 μM) overnight. The cells were then washed and harvested using cold DPBS (14190250, Life Technologies). The cell pellets were isolated by centrifugation (500×g, 10 min) and lysed by TEA lysis buffer (50 mM TEA-HCl, pH 7.4, 150 mM NaCl, 1% Triton X-100, 0.2% SDS, 1×Protease inhibitor-EDTA free cocktail (05892791001, Roche), phosphatase inhibitor cocktail (P0044, Sigma-Aldrich)) on ice for 30 mins. The protein concentration was determined using Bio-Rad assay and adjusted to 1 mg/mL. For lysate labeling, HEK293A cells were grown in DMEM with 10% FBS. When confluence reached ˜90%, the cells were washed and harvested by cold DPBS. The cell pellets were isolated by centrifugation (500×g, 5 min) and resuspended with TEA lysis buffer (50 mM TEA-HCl, pH 7.4, 150 mM NaCl, 1% Triton X-100, IXProtease inhibitor-EDTA free cocktail, phosphatase inhibitor cocktail), incubated on ice for 15 mins, and then sonicated (7 s, 30% duty cycle, output setting=3). After centrifugation (17,000×g, 10 min), the supernatant is transferred to a clean tube. The protein concentration is determined using Bio-Rad assay and adjusted to 1 mg/mL. The lysate was then labeled with DMSO or probes (10 μM) at room temperature for 1 h with rotation. SDS was added to the lysate to a final concentration of 0.2% and the resultant solution retained for further use.
To 1.5 mg of proteomes from cell labeling or lysate labeling as described above were added 150 μL fresh prepared “click” mixture of TBTA (75 μL, 2 mM in 1:4 DMSO: t-BuOH), CuSO4 (30 μL, 50 mM in H2O), TCEP (30 μL, 50 mM in H2O) and Biotin-Azide (15 μL, 10 mM in DMSO). The samples were rotated at room temperature for 1 h. To these samples were then added MeOH (6 mL), CHCl3 (1.5 mL) and H2O (4.5 mL), and the resultant solution was mixed well. After centrifugation (17,000×g, 10 min), the aqueous layers were carefully aspirated leaving a protein disc between the organic and aqueous phases. The protein disc was washed with 6 mL of methanol and isolated by centrifugation (17,000×g, 10 min). The remaining protein pellet was collected and redissolved with 700 μL of 2% SDS in 0.1% PBST. The solution was diluted with 4.9 mL of 0.1% PBST and added 0.1% PBST-washed streptavidin agarose beads (150 μL, 1:1, sigma). After rotation at room temperature for 2 h, the beads were then pelleted by centrifugation (500×g, 5 min) and washed with 0.2% SDS in PBS (3×1 mL). The beads were transferred to a Protein Low-Binding tube and the immobilized proteins were digested by addition of urea (200 μL, 2.0 M in DPBS), CaCl2) (2.0 μL, 100 mM in H2O) and sequence grade porcine trypsin (2 μg; Promega). After digesting overnight at 37° C., the supernatant was transferred to a clean Protein Low-Binding, acidified with HCO2H (formic acid, 16 μL) and stored at −20° C. until the analyzed by LC-MS/MS.

Myc-TEAD1 C344S mutant = biological target: T1, Myc-TEAD1 C344S mutant (Homo sapiens, UniProt P28347, C359S); assay: Labeling of transfected Myc-TEAD1 wild type or C344S mutant in HEK293A cells (streptavidin pulldown, western blot); assay type: cell-based; conditions: 10 μM overnight, C344S vs wild type (FIG. 3)
T1 construct: expressed in transfected cells; host or cells: HEK293A
Method: HEK293A cells was seed in 6 cm dishes overnight and transfected with plasmids using PEI reagent (1 μg/μL). Briefly, proteins of interest and PEI were diluted in serum-free DMEM medium in two tubes (DNA:PEI ratio=1:2). After standing still for 5 mins, the solutions were mixed well and allowed to stand unperturbed for an additional 20 mins. The mixture was then added to dishes directly.
For in-cell labeling, HEK293A cells with or without overexpression of proteins of interest were starved in DMEM medium with 10% dialyzed fetal bovine serum (DFBS) for 1 h and labeled using the covalent probes (10 μM) overnight. The cells were then washed and harvested using cold DPBS (14190250, Life Technologies). […] The protein concentration was determined using Bio-Rad assay and adjusted to 1 mg/mL. […] The protein concentration is determined using Bio-Rad assay and adjusted to 1 mg/mL. […]
100 μL of labeled proteome was treated with 10 μL of freshly prepared “click” mixture containing 1 mM TBTA, 10 mM TCEP, 10 mM CuSO4, 1 mM Biotin-Azide and incubated for 1 h at room temperature. […] The bound proteins were eluted with a buffer containing 10 mM EDTA (pH 8.2) and 95% formamide and analyzed with SDS-PAGE. […]

RRAS2 = biological target: T2, RRAS2 (Homo sapiens, UniProt P62070); assay: Auto-palmitoylation of recombinant RRAS2 with Alkyne Palmitoyl-CoA (western blot); conditions: indicated concentrations, 30 mins (FIG. 6C)
T2 sequence (P62070 1-204): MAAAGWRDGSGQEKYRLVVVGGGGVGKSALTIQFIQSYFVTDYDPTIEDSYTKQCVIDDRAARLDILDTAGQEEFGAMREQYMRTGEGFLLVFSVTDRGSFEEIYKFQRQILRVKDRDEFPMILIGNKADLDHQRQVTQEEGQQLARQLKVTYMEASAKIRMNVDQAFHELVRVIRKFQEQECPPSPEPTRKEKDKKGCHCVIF

RAP1A = biological target: T3, RAP1A (Homo sapiens, UniProt P62834); assay: Auto-palmitoylation of recombinant RAP1A with Alkyne Palmitoyl-CoA (western blot); conditions: indicated concentrations, 30 mins (FIG. 6B)
T3 sequence (P62834 1-184): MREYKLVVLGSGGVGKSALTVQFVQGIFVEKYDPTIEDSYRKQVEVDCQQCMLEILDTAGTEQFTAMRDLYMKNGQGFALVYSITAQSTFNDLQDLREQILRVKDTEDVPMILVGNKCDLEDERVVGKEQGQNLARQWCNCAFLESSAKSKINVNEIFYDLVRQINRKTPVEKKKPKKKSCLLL

PCNA = PCNA (Homo sapiens, UniProt P12004); assay: Auto-palmitoylation of recombinant PCNA with Alkyne Palmitoyl-CoA (western blot); conditions: indicated concentrations, 30 mins (FIG. 6A)
IDH1WT = IDH1WT (Homo sapiens, UniProt O75874); assay: Auto-palmitoylation of recombinant IDH1 WT with Alkyne Palmitoyl-CoA (western blot); conditions: indicated concentrations, 30 mins (FIG. 6D)
Sequence of IDH1WT (O75874 whole entry): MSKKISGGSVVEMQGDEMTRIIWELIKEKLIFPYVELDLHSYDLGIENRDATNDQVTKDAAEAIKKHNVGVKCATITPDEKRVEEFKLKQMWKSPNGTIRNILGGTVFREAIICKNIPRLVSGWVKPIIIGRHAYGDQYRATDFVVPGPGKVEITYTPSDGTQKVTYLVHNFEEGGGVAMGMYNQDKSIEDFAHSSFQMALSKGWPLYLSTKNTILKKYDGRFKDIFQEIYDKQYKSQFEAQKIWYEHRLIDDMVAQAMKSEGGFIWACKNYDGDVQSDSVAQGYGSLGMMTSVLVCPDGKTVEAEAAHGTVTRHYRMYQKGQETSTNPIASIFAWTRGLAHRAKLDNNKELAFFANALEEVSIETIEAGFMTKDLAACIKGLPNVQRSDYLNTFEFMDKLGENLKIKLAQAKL

Sequence of TEAD2 (Q15562 whole entry, species assumed): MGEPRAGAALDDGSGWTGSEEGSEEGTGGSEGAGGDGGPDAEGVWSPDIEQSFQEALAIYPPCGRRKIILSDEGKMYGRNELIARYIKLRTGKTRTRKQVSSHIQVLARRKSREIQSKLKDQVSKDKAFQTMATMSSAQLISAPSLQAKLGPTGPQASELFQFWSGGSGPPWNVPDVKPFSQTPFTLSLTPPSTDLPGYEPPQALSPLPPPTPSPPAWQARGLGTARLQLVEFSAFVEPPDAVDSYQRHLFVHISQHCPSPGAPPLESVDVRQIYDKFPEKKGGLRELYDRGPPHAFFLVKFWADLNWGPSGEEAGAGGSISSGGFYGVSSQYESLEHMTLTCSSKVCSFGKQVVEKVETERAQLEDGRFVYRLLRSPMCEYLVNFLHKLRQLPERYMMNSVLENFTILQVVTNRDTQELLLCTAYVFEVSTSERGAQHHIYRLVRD
Sequence of PCNA (P12004 whole entry): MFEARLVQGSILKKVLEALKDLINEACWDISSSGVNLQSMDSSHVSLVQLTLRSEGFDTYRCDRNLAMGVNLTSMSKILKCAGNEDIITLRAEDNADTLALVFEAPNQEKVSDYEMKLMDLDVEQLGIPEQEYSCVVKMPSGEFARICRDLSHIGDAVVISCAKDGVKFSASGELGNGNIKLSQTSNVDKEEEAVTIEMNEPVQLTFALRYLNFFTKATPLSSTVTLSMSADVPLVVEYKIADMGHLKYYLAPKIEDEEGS
T1 sequence (P28347 16-426 C359S limits assumed): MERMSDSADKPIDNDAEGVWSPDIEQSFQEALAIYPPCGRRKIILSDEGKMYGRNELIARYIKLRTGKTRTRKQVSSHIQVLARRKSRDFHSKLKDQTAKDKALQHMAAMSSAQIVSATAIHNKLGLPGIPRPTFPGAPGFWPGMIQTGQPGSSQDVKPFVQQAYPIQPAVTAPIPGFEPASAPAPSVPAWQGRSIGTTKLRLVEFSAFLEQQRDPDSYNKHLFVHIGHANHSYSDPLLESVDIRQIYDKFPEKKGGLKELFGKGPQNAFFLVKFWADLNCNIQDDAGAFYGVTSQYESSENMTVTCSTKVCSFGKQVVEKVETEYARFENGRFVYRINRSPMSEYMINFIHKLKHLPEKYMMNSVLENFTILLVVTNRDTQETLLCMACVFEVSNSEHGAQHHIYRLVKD

Compound	labeling efficiency of TEAD2 (TEAD2)	number of proteins collectively targeted by Compound A21, Compound B1 and Compound B4 (HEK293A cells)	number of proteins enriched by the covalent probes also identified by SLC-ABPP (HEK293A cells) [proteins]	also measured
C#CCCCCCCCCCCCCCCNC(=O)CI [Compound A21, N-(hexadec-15-yn-1-yl)-2-iodoacetamide]	strong labeling efficiency	One hundred and sixty	191	
C#CCCCCCCCCCCCCNS(=O)(=O)C=C [Compound A64, N-(tetradec-13-yn-1-yl)ethenesulfonamide]	strong labeling efficiency			
C#CCCCCCCCCCCCCCC(=O)SCCNC(=O)CCNC(=O)[C@H](O)C(C)(C)COP(=O)(O)OP(=O)(O)OC[C@H]1O[C@@H](n2cnc3c(N)ncnc32)[C@H](O)[C@@H]1OP(=O)(O)O [Alkyne Palmitoyl-CoA]				auto-palmitoylation (labeling) of RRAS2 (RRAS2): auto-palmitoylated in a dose dependent manner; auto-palmitoylation (labeling) of RAP1A (RAP1A): auto-palmitoylated in a dose dependent manner; auto-palmitoylation (labeling) of PCNA (PCNA): auto-palmitoylated in a dose dependent manner; auto-palmitoylation (labeling) of IDH1 WT (IDH1WT): auto-palmitoylated in a dose dependent manner
C#CCCCCCCCCCCCCNC(=O)CI [Compound A63, 2-iodo-N-(tetradec-13-yn-1-yl)acetamide]	strong labeling efficiency			
C#CCCCCCCCCCCCCCCNS(=O)(=O)C=C [Compound A26, N-(hexadec-15-yn-1-yl)ethenesulfonamide]	strong labeling efficiency			

Now from value to compound, other results behind:

labeling efficiency of TEAD2 (TEAD2)	Compound	number of proteins collectively targeted by Compound A21, Compound B1 and Compound B4 (HEK293A cells)	number of proteins enriched by the covalent probes also identified by SLC-ABPP (HEK293A cells) [proteins]	also measured
strong labeling efficiency	C#CCCCCCCCCCCCCNC(=O)CBr [Compound B4, 2-bromo-N-(tetradec-13-yn-1-yl)acetamide]	One hundred and sixty	191	effect of mutating cysteine 344 (C344S) on labeling of Myc-TEAD1 by the probe (Myc-TEAD1 C344S mutant): inhibited labeling
strong labeling efficiency	C#CCCCCCCCCCCCCCCNC(=O)CBr [Compound B1, 2-bromo-N-(hexadec-15-yn-1-yl)acetamide]	One hundred and sixty	191	
